In this assay the target is Transient receptor potential cation channel subfamily M member 4 (Homo sapiens, UniProt Q8TD43). As to the kind of experiment: Inhibition of TRPM4 (unknown origin).

pIC50: −log10 of the molar value.

Transient receptor potential cation channel subfamily M member 4, sequence (Q8TD43 whole entry): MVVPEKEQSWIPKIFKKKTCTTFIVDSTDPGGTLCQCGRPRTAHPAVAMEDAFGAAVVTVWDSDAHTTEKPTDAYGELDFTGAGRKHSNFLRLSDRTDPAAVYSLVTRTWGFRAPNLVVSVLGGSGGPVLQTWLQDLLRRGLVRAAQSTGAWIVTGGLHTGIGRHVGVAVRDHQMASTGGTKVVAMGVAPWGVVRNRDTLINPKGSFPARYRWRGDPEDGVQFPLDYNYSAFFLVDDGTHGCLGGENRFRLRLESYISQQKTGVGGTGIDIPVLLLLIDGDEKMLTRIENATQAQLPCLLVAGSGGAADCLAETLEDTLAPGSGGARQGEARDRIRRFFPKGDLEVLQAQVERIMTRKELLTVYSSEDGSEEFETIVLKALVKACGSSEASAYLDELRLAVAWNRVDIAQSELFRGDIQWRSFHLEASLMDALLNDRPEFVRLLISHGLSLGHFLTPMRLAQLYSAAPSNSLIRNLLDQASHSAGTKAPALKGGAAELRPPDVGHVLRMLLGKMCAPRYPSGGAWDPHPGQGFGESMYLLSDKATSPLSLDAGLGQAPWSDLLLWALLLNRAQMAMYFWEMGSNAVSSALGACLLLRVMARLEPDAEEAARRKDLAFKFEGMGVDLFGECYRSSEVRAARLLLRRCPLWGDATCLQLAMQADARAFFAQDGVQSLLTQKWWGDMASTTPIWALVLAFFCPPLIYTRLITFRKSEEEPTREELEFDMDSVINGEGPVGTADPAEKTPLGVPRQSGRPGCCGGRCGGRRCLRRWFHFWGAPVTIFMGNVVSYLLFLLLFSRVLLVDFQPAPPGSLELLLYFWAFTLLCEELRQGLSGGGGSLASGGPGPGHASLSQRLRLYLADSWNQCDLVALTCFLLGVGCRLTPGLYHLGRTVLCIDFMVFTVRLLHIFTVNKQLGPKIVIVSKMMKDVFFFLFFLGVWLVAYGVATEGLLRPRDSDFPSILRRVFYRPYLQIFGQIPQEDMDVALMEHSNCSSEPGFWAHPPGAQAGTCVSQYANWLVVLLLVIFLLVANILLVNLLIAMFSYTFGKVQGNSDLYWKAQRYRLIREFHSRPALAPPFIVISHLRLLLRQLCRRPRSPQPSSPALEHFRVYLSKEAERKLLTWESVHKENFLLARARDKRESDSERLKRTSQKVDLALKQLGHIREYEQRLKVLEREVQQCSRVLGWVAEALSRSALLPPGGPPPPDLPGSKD

Usually pIC50 stands for the IC50 on a negative log10 scale, so that one unit is a factor of ten. Low readings indicate a large IC50, high ones a small IC50. In the case of `Oc1cc2ccccc2c2ccccc12`, the pIC50 was 4.54.

For the origin of these results see BindingDB's records for doi:10.1016/j.ejmech.2019.01.048 (University of Berne, 2019).
